Measured values reported in patent US8747881B2, “Intraluminal medical devices in combination with therapeutic agents” (Cordis Corporation, priority 2003, dated 2014).

Columns and labels:
[1] = system: human smooth muscle cells; assay: Cladribine Example: PDGF-stimulated cell proliferation, smooth muscle cells; format: cell-based; conditions: from the IC50 values
Procedure: To assess the ability of cladribine to prevent cell proliferation, human smooth muscle or endothelial cells (Clonetics, Walkersville, Md.) were seeded at a density of 2000 cells/cm^2 (approximately 3600 cells/well) into each well of 12-well plates and cultured with 1.5 ml of growth medium containing five percent fetal calf serum (FCS). After twenty-four hours, the growth medium was changed and fresh medium containing 10 ng/ml platelet-derived growth factor AB (PDGF AB; LIFE Technologies), as well as various concentrations of cladribine (0.001-10,000 nM) were added with triplicate wells. Medium was replaced with fresh cladribine-containing medium after three days. On day six, cells were detached by trypsinization to yield a cell suspension, lightly centrifuged to pellet and then counted manually using a Neubauer hemocytometer system. Cell viability was assessed by trypan blue exclusion.

[2] = system: human coronary artery smooth muscle cells; assay: Anti-proliferative activity in non-synchronized cultured cells stimulated with two percent fetal bovine serum; format: cell-based; conditions: for effect on the anti-proliferative activity of rapamycin when added: non-synchronized cells, added to cells treated with rapamycin
Text: The multiple curves represent various concentrations of mycophenolic acid ranging from zero to one thousand nanomolar concentrations. […] This potentiation observed in cultured coronary artery smooth muscle cells preferably translates to an enhancement in anti-restenotic efficacy following vascular injury and a reduction in the required amount of either agent to achieve the desired anti-restenotic effect.
FIG. 58 illustrates, in graphical format, the anti-proliferative activity of cladribine in non-synchronized cultured human coronary artery smooth muscle cells stimulated with two percent fetal bovine serum.
The multiple curves represent various concentrations of cladribine ranging from zero to nine hundred nanomolar concentrations. […] As illustrated, the percent inhibition increases substantially as the dose of cladribine increases.

[3] = system: human coronary artery smooth muscle cells; assay: Anti-proliferative activity in synchronized cultured cells stimulated with two percent fetal bovine serum; format: cell-based; conditions: for effect on the anti-proliferative activity of rapamycin when added: added to cells treated with rapamycin
Text: (§1) The multiple curves represent various concentrations of topotecan ranging from zero to three hundred nanomolar concentrations.
(§2) The multiple curves represent various concentrations of etoposide ranging from zero to eight hundred nanomolar concentrations.
The multiple curves represent various concentrations of Panzem® ranging from zero to 100 micromolar concentrations.

cell viability = assay: Cell viability assay; format: cell-based
Text: as §1, §2

[4] = system: human coronary artery smooth muscle cell; assay: MTS cytotoxicity assay; format: cell-based; conditions: concentrations up to 30,000.00 nanomolar, FIG. 69
Text: Typically, a control is utilized to determine baseline toxicity.

[5] = Drug concentration in liquid formulations by liquid chromatography / HPLC; format: physicochemical
Procedure: Table 8, shown below, summarizes the concentrations of the excipient, the co-solvents and the drug for four different liquid formulations in accordance with exemplary embodiments of the present invention.
In another exemplary embodiment, the liquid formulation of sirolimus comprises water and ethanol as co-solvents and Vitamin E TPGS as the excipient. The liquid formulation was created utilizing the following process. Two hundred milligrams of sirolimus and two grams of ethanol were added to a pre-weighed twenty milliliter scintillation vial. The vial was vortexed and sonicated until the sirolimus was completely dissolved. Approximately six hundred milligrams of Vitamin E TPGS was then added to the solution of ethanol and sirolimus. The vial was vortexed again until a clear yellowish solution was obtained. Nitrogen gas was then used to reduce the amount of ethanol in the vial to approximately two hundred twenty-nine milligrams. In a separate vial, three hundred milligrams of Vitamin E TPGS was dissolved in eleven milliliters of purified water while undergoing vortexing. The Vitamin E TPGS and water solution was then added to the first vial containing the sirolimus, Vitamin E TPGS and ethanol. The first vial was then vortexed vigorously and continuously for three minutes. […] The foam gradually disappeared after sitting at room temperature. […]

tumor cell lines = conditions: cited from earlier work
[6] = system: human coronary artery smooth muscle cell; assay: In vitro cell culture study of coronary artery smooth muscle cell proliferation; format: cell-based
Text: FIG. 51 is a graph of the inhibition of coronary artery smooth muscle cells by trichostatin A in a cell culture study.

## Nc1nc(Cl)nc2c1ncn2[C@H]1C[C@H](O)[C@@H](CO)O1 [Cladribine, 2-chlorodeoxyadenosine]
[1]
  potency as inhibitor of smooth muscle cells relative to endothelial cells: approximately twice
[2]
  effect on the anti-proliferative activity of rapamycin when added: increases the percent inhibition of rapamycin alone
[2]; non-synchronized, two percent fetal bovine serum, FIG. 58
  inhibition of human coronary artery smooth muscle cell proliferation: completely inhibits

## COc1cc([C@@H]2c3cc4c(cc3[C@@H](O[C@@H]3O[C@@H]5CO[C@@H](C)O[C@H]5[C@H](O)[C@H]3O)[C@H]3COC(=O)[C@H]23)OCO4)cc(OC)c1O [Etoposide, etoposide]
[3]
  effect on the anti-proliferative activity of rapamycin when added: increases the percent inhibition of rapamycin alone
Cell viability; concentrations up to ten micromolar
  cytotoxicity: non-cytotoxic

## COc1cc2c(cc1O)CC[C@@H]1[C@@H]2CC[C@]2(C)[C@@H](O)CC[C@@H]12 [Panzem®, 2-methoxyestradiol]
[4]
  cell survival (MTS assay): do not reduce human coronary artery smooth muscle cell survival
[3]; FIG. 66
  inhibition of human coronary artery smooth muscle cell proliferation in vitro: extremely effective inhibitor
[3]
  effect on the anti-proliferative activity of rapamycin when added: increases the percent of inhibition of rapamycin alone

## CO[C@H]1C[C@@H]2CC[C@@H](C)[C@@](O)(O2)C(=O)C(=O)N2CCCC[C@H]2C(=O)O[C@H]([C@H](C)C[C@@H]2CC[C@@H](O)[C@H](OC)C2)CC(=O)[C@H](C)/C=C(\C)[C@@H](O)[C@@H](OC)C(=O)[C@H](C)C[C@H](C)/C=C/C=C/C=C/1C [Rapamycin, rapamycin]
[5]; 4 mg/ml formulation with PEG 200, ethanol and water
  concentration relative to the solubility of sirolimus in water: four hundred to about one thousand

## CC[C@@]1(O)C(=O)OCc2c1cc1n(c2=O)Cc2cc3c(CN(C)C)c(O)ccc3nc2-1 [Topotecan, topotecan]
[3]
  effect on the anti-proliferative activity of rapamycin when added: increases the percent inhibition of rapamycin alone
Cell viability; concentrations up to one micromolar
  cytotoxicity: non-cytotoxic

## CC(/C=C/C(=O)NO)=C\[C@@H](C)C(=O)c1ccc(N(C)C)cc1 [trichostatin A]
Tumor cell lines
  anti-proliferative IC50: low nM range
[6]; human coronary artery smooth muscle cell proliferation, read-out: anti-proliferative IC50
  IC50: ~6 nM
[6]; in vitro cell culture
  inhibition of human coronary artery smooth muscle cell proliferation: completely inhibit

## CO[C@H]1C[C@@H]2CC[C@@H](C)[C@@](O)(O2)C(=O)C(=O)N2CCCC[C@H]2C(=O)O[C@H]([C@H](C)C[C@@H]2CC[C@@H](OC(=O)C(C)(CO)CO)[C@H](OC)C2)CC(=O)[C@H](C)/C=C(\C)[C@@H](O)[C@@H](OC)C(=O)[C@H](C)C[C@H](C)/C=C/C=C/C=C/1C [CCI-779]
[5]; ethanol (less than two percent), Vitamin E TPGS and water
  concentration in the final solution (HPLC assay): 15000 µg/mL

## COc1c(C)c2c(c(O)c1C/C=C(\C)CCC(=O)O)C(=O)OC2 [mycophenolic acid]
[2]
  effect on the anti-proliferative activity of rapamycin when added: potentiates the anti-proliferative activity of rapamycin
